According to PMC13379236 (Cell reports, 2026):
Entries after “also recorded” stand apart in the source; their conditions may differ.

Tests used:
[1] = system: innate immune response; conditions: cited from earlier work
[2] = system: ZYG11B; type: cell-based, human
[3] = system: NLRP1 inflammasome; type: cell-based, human
[4] = system: ZYG11B; conditions: cited from earlier work

## ORF10: SARS-CoV-2 protein ORF10, overexpressed
[1]
  effect on innate immune response: can suppress the innate immune response
[2]
  ORF10 binding to ZYG11B E644K: decrease the binding
  ORF10 binding to ZYG11B K515E: substantially enhance binding
  ORF10 binding to ZYG11B R466A: minimal effect; also recorded: did not strongly affect ORF10 binding
[3]
  effect of ORF10 on inflammasome activation with NLRP1 E133K: no decrease in inflammasome activation
  inhibition of HRV 3Cpro-mediated activation of wild-type NLRP1: could inhibit HRV 3Cpro-mediated activation of NLRP1
[4]
  interaction with ZYG11B: interacts with ZYG11B
